From patent US20250339569A1, “CARBONIC ANHYDRASE IX LIGANDS” (priority 2021, published 2025)
Where two headings read alike, the source gives them in different places. Starred links: 1 amine or outer side, 2 acyl side, 3 side chain; linkers in the order of their positions; H or OH if unused. Positions of bridges follow the written chain, without caps; N, C: chain ends. Non-standard residues stand in square brackets, D forms with d. Residues, ends and D or L forms follow the SMILES beside them. *: point of attachment. Phe(3-NHCO(CH2)3SO2NH2) = N[C@@H](Cc1cccc(NC(=O)CCCS(N)(=O)=O)c1)C(=O)O; X3 = O=C(O)CN1CCN(CC(=O)O)CCN(CC(=O)NCCCOCCOCCOCCCN*)CCN(CC(=O)O)CC1; X30 = Cn1ncc(C(=O)Nc2cccc(C[C@H](N[*:1])C(=O)[*:2])c2)c1C#N; DOTA = O=C(O)CN1CCN(CC(=O)O)CCN(CC(=O)*)CCN(CC(=O)O)CC1; Phe(4-NH2) = Nc1ccc(C[C@H](N)C(=O)O)cc1; mXylylene = c1cc(C[*:1])cc(C[*:2])c1; X2 = O=C(CN1CCC(N[*:1])CC1)[*:2]; X26 = NS(=O)(=O)c1cccc(C(=O)*)c1; X1 = O=C(CN1CCN([*:1])CC1)[*:2]; Cha = N[C@@H](CC1CCCCC1)C(=O)O; Suc = O=C(CCC(=O)[*:2])[*:1]; 3Amb = NCc1cccc(C(=O)O)c1; 4Amb = NCc1ccc(C(=O)O)cc1; Dap = NC[C@H](N)C(=O)O; Inp = O=C(O)C1CCNCC1

Columns and labels:
[1] = target: T1, CAIX-expressing human HT-29 colorectal cancer cells (Homo sapiens, UniProt Q16790); test: FACS binding assay (IC50 determination, competition with tracer 3BP-2776 or 3BP-4149); conditions: 4° C., 1 hour, read-out: pIC50 category (activity) (converted)
T1 construct: CAIX-expressing human HT-29 colorectal cancer cells; host or cells: HT-29 human colorectal cancer cells
Method in brief: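 HT-29 cells in FACS buffer (PBS, 1% FCS) at 500.000 cells/ml were exposed to compounds competing with a labelled tracer, with biotinylated compounds detected by 1 μg/mL APC-streptavidin for 30 min on ice. APC/Cy5 median fluorescence was read by flow cytometry and IC50 derived by 4PL fit.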

[2] = target: T2, human carbonic anhydrase IX (hCAIX-Fc) (Homo sapiens, UniProt Q16790); test: Surface plasmon resonance assay with hCAIX-Fc; assay type: binding; conditions: 25° C.; for t1/2 category (activity): SPR dissociation half-life, hCAIX-Fc; for Kd: SPR, hCAIX-Fc captured, read-out: pKD category (activity) (converted)
T2 construct: purchased SinoBliological (Sino Biological) 10107-H02H

[3] = FACS binding assay, HT-29 cells, competition with tracer 3BP-2776 (10 nM, biotin-labeled)
[4] = FACS competition on HT-29 cells, Tracer ID 3BP-2776 (10 nM, biotin-labeled)
[5] = FACS binding assay, HT-29 cells, competition with tracer 3BP-4149 (3 nM, Cy5-labeled)

Row | IC50 [1, 3] [nM] | t1/2 category (activity) [2] | Kd [2] [nM] | IC50 [1, 4] [nM] | IC50 [1, 5] [nM] | Structure (SMILES)
1 | < 10 | A (t1/2>15.0 minutes) | < 10 |  |  | CC(C)C[C@@H]1NC(=O)[C@H](Cc2cccc(NC(=O)CCCS(N)(=O)=O)c2)NC(=O)[C@H](CC(=O)O)NC(=O)[C@H]2CCCN2C(=O)[C@H](CCC(=O)O)NC(=O)[C@@H](NC(=O)[C@H](Cc2ccc(O)cc2)NC(=O)CN2CCN(C(=O)CN3CCN(CC(=O)O)CCN(CC(=O)O)CCN(CC(=O)O)CC3)CC2)CSCc2cccc(c2)CSC[C@@H](C(N)=O)NC(=O)[C@H](CO)NC(=O)[C@H](Cc2c[nH]c3ccccc23)NC(=O)[C@H]([C@@H](C)O)NC1=O [3BP-4448] ({DOTA}-[X1]YCE[dP]D[Phe(3-NHCO(CH2)3SO2NH2)]LTWSC-NH2; linker 3-12 via mXylylene)
2 | 10 to 79.4 | C (t1/2 between 2.1 and 5.0 minutes) | < 10 |  |  | CC(C)C[C@@H]1NC(=O)[C@H](Cc2cccc(NC(=O)CCCC(=O)NO)c2)NC(=O)[C@H](CC(=O)O)NC(=O)[C@H]2CCCN2C(=O)[C@H](CCC(=O)O)NC(=O)[C@@H](NC(=O)[C@H](CCC(N)=O)NC(=O)CN2CCN(C(=O)CN3CCN(CC(=O)O)CCN(CC(=O)O)CCN(CC(=O)O)CC3)CC2)CSCc2cccc(c2)CSC[C@@H](C(N)=O)NC(=O)[C@H](CO)NC(=O)[C@H](Cc2c[nH]c3ccccc23)NC(=O)[C@H]([C@@H](C)O)NC1=O [3BP-4515]
3 | < 10 | C (t1/2 between 2.1 and 5.0 minutes) | < 10 |  |  | CC(C)[C@H](NC(=O)CN1CCC(NC(=O)CN2CCN(CC(=O)O)CCN(CC(=O)O)CCN(CC(=O)O)CC2)CC1)C(=O)N[C@@H](Cc1ccc(O)cc1)C(=O)N[C@H]1CSCc2cccc(c2)CSC[C@@H](C(N)=O)NC(=O)[C@H](CO)NC(=O)[C@H](Cc2c[nH]c3ccccc23)NC(=O)[C@H]([C@@H](C)O)NC(=O)[C@H](CC2CCCCC2)NC(=O)[C@H](Cc2c[nH]c3ccccc23)NC(=O)[C@H](CC(=O)O)NC(=O)[C@H]2CCCN2C(=O)[C@H](CCC(=O)O)NC1=O [3BP-4143] ({DOTA}-[X2]VYCE[dP]DW[Cha]TWSC-NH2; linker 4-13 via mXylylene)
4 |  | C (t1/2 between 2.1 and 5.0 minutes) | < 10 | < 10 |  | CC(C)C[C@@H]1NC(=O)[C@H](Cc2c[nH]c3ccccc23)NC(=O)[C@H](CC(=O)O)NC(=O)[C@H]2CCCN2C(=O)[C@H](CCC(=O)O)NC(=O)[C@@H](NC(=O)[C@H](Cc2ccc(O)cc2)NC(=O)CN2CCC(NC(=O)CN3CCN(CC(=O)O)CCN(CC(=O)O)CCN(CC(=O)O)CC3)CC2)CSCc2cccc(c2)CSC[C@@H](C(N)=O)NC(=O)[C@H](CO)NC(=O)[C@H](Cc2c[nH]c3ccccc23)NC(=O)[C@H]([C@@H](C)O)NC1=O [3BP-3867] ({DOTA}-[X2]YCE[dP]DWLTWSC-NH2; linker 3-12 via mXylylene)
5 | < 10 | C (t1/2 between 2.1 and 5.0 minutes) | < 10 |  |  | CC(C)C[C@@H]1NC(=O)[C@H](Cc2c[nH]c3ccccc23)NC(=O)[C@H](CC(=O)O)NC(=O)[C@H]2CCCN2C(=O)[C@H](CCC(=O)O)NC(=O)[C@@H]2CSCc3cccc(c3)CSC[C@@H](C(N)=O)NC(=O)[C@H](CNC(=O)C[C@H](NC(=O)C3CCN(C(=O)CN4CCN(CC(=O)O)CCN(CC(=O)O)CCN(CC(=O)O)CC4)CC3)C(=O)N2)NC(=O)[C@H](Cc2c[nH]c3ccccc23)NC(=O)[C@H]([C@@H](C)O)NC1=O [3BP-4256] ({DOTA-Inp}-DCE[dP]DWLTW[Dap]C-NH2; lactam 1-10; linker 2-11 via mXylylene)
6 | < 10 | A (t1/2>15.0 minutes) | < 10 |  |  | CC(C)C[C@@H]1NC(=O)[C@H](Cc2cccc(NC(=O)c3cc(S(N)(=O)=O)co3)c2)NC(=O)[C@H](CC(=O)O)NC(=O)[C@H]2CCCN2C(=O)[C@H](CCC(=O)O)NC(=O)[C@@H](NC(=O)[C@H](CCC(N)=O)NC(=O)CN2CCN(C(=O)CN3CCN(CC(=O)O)CCN(CC(=O)O)CCN(CC(=O)O)CC3)CC2)CSCc2cccc(c2)CSC[C@@H](C(N)=O)NC(=O)[C@H](CO)NC(=O)[C@H](Cc2c[nH]c3ccccc23)NC(=O)[C@H]([C@@H](C)O)NC1=O [3BP-4788]
7 |  | D (t1/2≤2.0 minutes) | 10 to 79.4 |  | 10 to 79.4 | CC(C)C[C@@H]1NC(=O)[C@H](Cc2cccc(NC(=O)c3cnn(C)c3C#N)c2)NC(=O)[C@H](CC(=O)O)NC(=O)[C@H]2CCCN2C(=O)[C@H](CCC(=O)O)NC(=O)[C@@H](NC(=O)[C@H](Cc2ccc(O)cc2)NC(=O)[C@@H](NC(=O)CN2CCC(NC(=O)CN3CCN(CC(=O)O)CCN(CC(=O)O)CCN(CC(=O)O)CC3)CC2)C(C)C)CSCc2cccc(c2)CSC[C@@H](C(N)=O)NC(=O)[C@H](CO)NC(=O)[C@H](Cc2c[nH]c3ccccc23)NC(=O)[C@H]([C@@H](C)O)NC1=O [3BP-4305] ({DOTA}-[X2]VYCE[dP]D[X30]LTWSC-NH2; linker 4-13 via mXylylene)
8 |  | B (t1/2 between 5.1 and 15.0 minutes) | < 10 | < 10 |  | CC(=O)N[C@H](C(=O)N[C@@H](Cc1ccc(O)cc1)C(=O)N[C@H]1CSCc2cccc(c2)CSC[C@@H](C(N)=O)NC(=O)[C@H](C)NC(=O)[C@H](Cc2c[nH]c3ccccc23)NC(=O)[C@H]([C@@H](C)O)NC(=O)[C@H](CC(C)C)NC(=O)[C@H](Cc2c[nH]c3ccccc23)NC(=O)[C@H](CC(=O)O)NC(=O)[C@@H](C)NC(=O)[C@H](CCC(=O)O)NC1=O)C(C)C [3BP-3280] (Ac-VYCE[dA]DWLTWAC-NH2; linker 3-12 via mXylylene)
9 | < 10 | C (t1/2 between 2.1 and 5.0 minutes) | < 10 |  |  | CC(C)C[C@@H]1NC(=O)[C@H](Cc2c[nH]c3ccccc23)NC(=O)[C@H](CC(=O)O)NC(=O)[C@H]2CCCN2C(=O)[C@H](CCC(=O)O)NC(=O)[C@@H]2CSCc3cccc(c3)CSC[C@@H](C(N)=O)NC(=O)[C@H](CNC(=O)C[C@H](NC(=O)c3ccc(CNC(=O)CN4CCN(CC(=O)O)CCN(CC(=O)O)CCN(CC(=O)O)CC4)cc3)C(=O)N2)NC(=O)[C@H](Cc2c[nH]c3ccccc23)NC(=O)[C@H]([C@@H](C)O)NC1=O [3BP-4261] ({DOTA-4Amb}-DCE[dP]DWLTW[Dap]C-NH2; lactam 1-10; linker 2-11 via mXylylene)
10 | < 10 | D (t1/2≤2.0 minutes) | < 10 |  |  | CC(C)C[C@@H]1NC(=O)[C@H](Cc2c[nH]c3ccccc23)NC(=O)[C@H](CC(=O)O)NC(=O)[C@H]2CCCN2C(=O)[C@H](CCC(=O)O)NC(=O)[C@@H]2CSCc3cccc(c3)CSC[C@@H](C(N)=O)NC(=O)[C@H](CNC(=O)C[C@H](NC(=O)c3cccc(CNC(=O)CN4CCN(CC(=O)O)CCN(CC(=O)O)CCN(CC(=O)O)CC4)c3)C(=O)N2)NC(=O)[C@H](Cc2c[nH]c3ccccc23)NC(=O)[C@H]([C@@H](C)O)NC1=O [3BP-4260] ({DOTA-3Amb}-DCE[dP]DWLTW[Dap]C-NH2; lactam 1-10; linker 2-11 via mXylylene)
11 |  | B (t1/2 between 5.1 and 15.0 minutes) | < 10 | < 10 |  | CC(C)C[C@@H]1NC(=O)[C@H](Cc2c[nH]c3ccccc23)NC(=O)[C@H](CC(=O)O)NC(=O)[C@@H](C)NC(=O)[C@H](CCC(=O)O)NC(=O)[C@@H](NC(=O)[C@H](Cc2ccc(O)cc2)NC(=O)[C@@H](NC(=O)CCC(=O)NCCCOCCOCCOCCCNC(=O)CN2CCN(CC(=O)O)CCN(CC(=O)O)CCN(CC(=O)O)CC2)C(C)C)CSCc2cccc(c2)CSC[C@@H](C(N)=O)NC(=O)[C@H](C)NC(=O)[C@H](Cc2c[nH]c3ccccc23)NC(=O)[C@H]([C@@H](C)O)NC1=O [3BP-3279] ({X3-Suc}-VYCE[dA]DWLTWAC-NH2; linker 3-12 via mXylylene)
12 | < 10 | A (t1/2>15.0 minutes) | < 10 |  |  | CC(C)C[C@@H]1NC(=O)[C@H](Cc2cccc(NC(=O)CCCS(N)(=O)=O)c2)NC(=O)[C@H](CC(=O)O)NC(=O)[C@H]2CCCN2C(=O)[C@H](CCC(=O)O)NC(=O)[C@@H](NC(=O)[C@H](CCC(N)=O)NC(=O)CN2CCN(CC(=O)O)CCN(CC(=O)O)CCN(CC(=O)O)CC2)CSCc2cccc(c2)CSC[C@@H](C(N)=O)NC(=O)[C@H](CO)NC(=O)[C@H](Cc2c[nH]c3ccccc23)NC(=O)[C@H]([C@@H](C)O)NC1=O [3BP-4453]
13 |  | A (t1/2>15.0 minutes) | < 10 |  | < 10 | CC(C)C[C@@H]1NC(=O)[C@H](Cc2ccc(NC(=O)c3cccc(S(N)(=O)=O)c3)cc2)NC(=O)[C@H](CC(=O)O)NC(=O)[C@H]2CCCN2C(=O)[C@H](CCC(=O)O)NC(=O)[C@@H](NC(=O)[C@H](Cc2ccc(O)cc2)NC(=O)[C@@H](NC(=O)CN2CCC(NC(=O)CN3CCN(CC(=O)O)CCN(CC(=O)O)CCN(CC(=O)O)CC3)CC2)C(C)C)CSCc2cccc(c2)CSC[C@@H](C(N)=O)NC(=O)[C@H](CO)NC(=O)[C@H](Cc2c[nH]c3ccccc23)NC(=O)[C@H]([C@@H](C)O)NC1=O [3BP-4408] ({DOTA}-[X2]VYCE[dP]D[Phe(4-NH2)](X26)LTWSC-NH2; linker 4-13 via mXylylene)
14 |  | D (t1/2≤2.0 minutes) | 10 to 79.4 |  | 100 to 794 | CC(C)C[C@@H]1NC(=O)[C@H](Cc2cccc(NC(=O)C[C@@H]3NC(=O)CNC3=O)c2)NC(=O)[C@H](CC(=O)O)NC(=O)[C@H]2CCCN2C(=O)[C@H](CCC(=O)O)NC(=O)[C@@H](NC(=O)[C@H](Cc2ccc(O)cc2)NC(=O)[C@@H](NC(=O)CN2CCC(NC(=O)CN3CCN(CC(=O)O)CCN(CC(=O)O)CCN(CC(=O)O)CC3)CC2)C(C)C)CSCc2cccc(c2)CSC[C@@H](C(N)=O)NC(=O)[C@H](CO)NC(=O)[C@H](Cc2c[nH]c3ccccc23)NC(=O)[C@H]([C@@H](C)O)NC1=O [3BP-4288]
